# From US11802132B2, “Small molecules for inducing selective protein degradation and uses thereof” (DANA-FARBER CANCER INSTITUTE, INC., priority 2018, dated 2023)
# “Also recorded” adds a separate entry of the source.
# What was measured:
# [1] = molecular target: T1, FKBP12 (Homo sapiens, UniProt P62942); test: FKBP12 degradation in MCF7 breast cancer cell line; format: cell-based; settings: MCF7 WT; 3 μM; 2, 6, 16 and 24 hours
# T1 construct: the cells used were MCF7 WT; endogenous in cells; host or cells: MCF7 WT
# From the text: (§1) A dimerization assay was used to detect the RPN13 and BRD4 dimerization by RAJQ9 (FIG. 40A). […] New compounds were synthesized in the series using the same conditions as RAJQ9 synthesis (See FIG. 26). It was confirmed in the BRD4 assay that the exemplary BRD4 degrader compounds (RAJQ14, RAJQ14-ester) bind to BRD4 (FIG. 44). It was observed that Myc was lost with BRD4 degraders in the MCF7 breast cancer cell line (FIG. 45). For the results shown in FIG. 45, the cells used were MCF7 WT, the exemplary BRD4 degrader compound was RAJQ14 (at 3 μM concentration), and the time points shown in the assay were 2 hours, 6 hours, 16 hours, and 24 hours. […] For the results shown in FIG. 46, the cells used were MCF7 WT, the drug was the exemplary FKBP12 degrader RAFKBP4 (at 3 μM concentration), and the time points shown in the assay were 2 hours, 6 hours, 16 hours, and 24 hours.
# [2] = molecular target: RPN13 and BRD4 (Homo sapiens, UniProt O60885+Q16186); test: Dimerization assay of RPN13 and BRD4; format: binding; settings: indicated concentrations
# From the text: as §1
# Sequence of RPN13 and BRD4 (Q16186 whole entry, other chains not shown): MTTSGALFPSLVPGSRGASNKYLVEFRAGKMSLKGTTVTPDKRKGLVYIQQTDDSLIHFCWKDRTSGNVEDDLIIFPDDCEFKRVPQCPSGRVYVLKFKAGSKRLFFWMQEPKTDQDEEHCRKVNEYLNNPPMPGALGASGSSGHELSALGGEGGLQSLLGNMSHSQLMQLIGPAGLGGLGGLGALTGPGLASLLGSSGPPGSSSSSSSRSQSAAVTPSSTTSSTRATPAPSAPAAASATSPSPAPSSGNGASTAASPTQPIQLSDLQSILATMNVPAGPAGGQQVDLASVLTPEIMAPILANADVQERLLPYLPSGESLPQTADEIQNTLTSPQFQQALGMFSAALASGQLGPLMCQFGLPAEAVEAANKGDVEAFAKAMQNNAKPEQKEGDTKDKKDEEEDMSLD
# T1 sequence (P62942 whole entry): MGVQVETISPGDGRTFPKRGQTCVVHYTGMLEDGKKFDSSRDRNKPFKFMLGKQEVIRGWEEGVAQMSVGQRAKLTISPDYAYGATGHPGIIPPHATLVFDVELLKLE
Compound,FKBP12 degradation in MCF7 cells [1],RPN13 and BRD4 dimerization [2]
CC[C@H](C(=O)N1CCCC[C@H]1C(=O)OC(CCc1ccc(OC)c(OC)c1)c1cccc(OCC(=O)NCCOCCOCCOCCC(=O)NCCOCCN[C@@H](Cc2ccccc2)C(=O)N2C/C(=C\c3ccc(Cl)c(Cl)c3)C(=O)/C(=C/c3ccc(Cl)c(Cl)c3)C2)c1)c1cc(OC)c(OC)c(OC)c1 (some centres unmarked) [RAFKBP4],FKBP12 degradation,
Cc1sc2c(c1C)C(c1ccc(Cl)cc1)=N[C@@H](CC(=O)NCCN1CCN(CCCCCCOc3ccc(C[C@H](N)C(=O)N4C/C(=C\c5ccc(Cl)c(Cl)c5)C(=O)/C(=C/c5ccc(Cl)c(Cl)c5)C4)cc3)CC1)c1nnc(C)n1-2 [RAJQ9],,can bring these two proteins (RPN13 and BRD4) together; also recorded: can dimerize these two proteins together
